A short description of data set [1]: Beagle dog absorption test (pharmacokinetics). It is filed as in vivo, Beagle dogs. The following applies: male and female Beagle dogs, oral, 0.3 mg/kg, single. The procedure: Beagle dogs were given the crystal form A of the compound represented by formula (I) by single or multiple oral administration and single intravenous injection respectively, with 6 dogs in each group, half male and half female. The single oral doses were 0.3, land 3 mg/kg respectively; the multiple doses were 1 mg/kg, once a day for 7 consecutive days; the single intravenous dose was 0.3 mg/kg. According to the drug plasma concentration-time curve, the pharmacokinetic parameters were calculated, the results are shown in Table 15. The vehicle for drug preparation in group 1 was 5% HP-beta-CD, 5% solutol, pH=8 aqueous solution, the vehicles for groups 2, 3, 4 were 0.5% MC, 0.2% Tween80 aqueous solution.

A short description of data set [2]: Hygroscopicity by dynamic vapor sorption (DVS). It is filed as physicochemical. Particulars: 25° C. and 80% RH. The procedure: 1.4 Dynamic Vapor Sorption (DVS) Method of the Present Disclosure
Instrument model: SMS DVS Advantage dynamic vapor sorption instrument
Detection conditions: 10-20 mg of sample was placed in a DVS sample tray for testing.
Detailed DVS parameters were as follows:
Equilibrium: dm/dt=0.01%/min: (shortest: 10 min, longest: 180 min)
Drying: drying at 0% RH for 120 min
RH (%) test gradient: 10%
RH (%) test gradient range: 0%-90%-0%
Hygroscopicity evaluation is classified as follows:
20 mg of the crystal form A of the compound represented by formula (I) was placed in the DVS sample tray for testing.

Data set [3] has as its system HR+/HER2+ human breast cancer BT-474 (PIK3CA amplified). As to the kind of experiment: In vivo pharmacodynamic study, BT-474 nude mouse subcutaneous xenograft tumor model. Details: species or system BALB/c nude mice. The procedure: The phenotype of human BT-474 breast cancer cells is HR+/HER2+, and it has PIK3CA amplification. This experiment evaluated the efficacy of the crystal form A of the compound represented by formula (I) in a human breast cancer xenograft tumor model, using BYL-719 as a reference.
Cell culture: Human breast cancer BT474 cells were cultured in vitro in a single layer, the culture condition was Hybri-Care medium with 10% fetal bovine serum and the cells were incubated in 5% CO2 at 37° C. Digestion and passage treatment with trypsin-EDTA was carried out twice a week. When the cell saturation was 80%-90% and the number reached the requirement, the cells were collected, counted and inoculated.
Animals: BALB/c nude mice, female, 6-8 weeks old, weighing 18-20 g. A total of 85 animals were required, and provided by Shanghai Bikai experimental animal Co., Ltd.
Tumor inoculation: Estrogen tablets (0.36 mg/tablet) were subcutaneously inoculated on the left back of each mouse, three days later, 0.2 mL (10×10^6 cells) of BT474 cells (with matrigel in a volume ratio of 1:1) were subcutaneously inoculated on the right back of each mouse, group administration was started when the average tumor volume reached 150 mm^3−200 mm^3.
Tumor-bearing mice in each administration group had good tolerance to the tested compounds.

In a further data set the target is T1, PI3Kδ (Homo sapiens, UniProt O00329).
T1 construct: purchased Millipore 14-604-K
T1 sequence (O00329 whole entry): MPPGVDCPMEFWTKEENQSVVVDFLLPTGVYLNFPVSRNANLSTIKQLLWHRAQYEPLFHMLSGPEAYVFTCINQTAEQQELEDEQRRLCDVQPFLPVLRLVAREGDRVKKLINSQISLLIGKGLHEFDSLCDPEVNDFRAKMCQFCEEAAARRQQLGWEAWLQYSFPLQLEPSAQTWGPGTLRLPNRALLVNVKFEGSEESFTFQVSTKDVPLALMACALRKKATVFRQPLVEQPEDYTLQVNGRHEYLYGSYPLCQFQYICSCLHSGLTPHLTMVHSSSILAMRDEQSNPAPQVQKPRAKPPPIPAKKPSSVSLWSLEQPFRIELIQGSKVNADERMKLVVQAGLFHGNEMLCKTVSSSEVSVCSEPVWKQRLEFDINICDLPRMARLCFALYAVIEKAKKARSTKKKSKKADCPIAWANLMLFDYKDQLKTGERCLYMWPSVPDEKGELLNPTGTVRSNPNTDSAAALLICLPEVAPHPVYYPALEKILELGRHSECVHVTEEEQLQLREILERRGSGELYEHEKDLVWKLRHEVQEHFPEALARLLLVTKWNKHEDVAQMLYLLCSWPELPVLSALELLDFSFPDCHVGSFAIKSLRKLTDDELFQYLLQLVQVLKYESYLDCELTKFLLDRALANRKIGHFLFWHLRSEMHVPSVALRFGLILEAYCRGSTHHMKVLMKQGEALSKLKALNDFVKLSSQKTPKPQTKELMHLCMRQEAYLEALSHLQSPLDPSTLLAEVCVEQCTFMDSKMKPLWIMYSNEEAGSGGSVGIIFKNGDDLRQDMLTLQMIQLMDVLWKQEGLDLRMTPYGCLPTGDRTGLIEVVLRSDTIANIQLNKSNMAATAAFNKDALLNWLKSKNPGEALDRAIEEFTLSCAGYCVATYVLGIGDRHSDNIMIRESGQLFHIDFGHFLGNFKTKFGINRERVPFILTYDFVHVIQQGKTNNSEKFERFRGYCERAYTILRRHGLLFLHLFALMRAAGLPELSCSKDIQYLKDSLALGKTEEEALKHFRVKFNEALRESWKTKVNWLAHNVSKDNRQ
T1 sequence (P27986 whole entry partner): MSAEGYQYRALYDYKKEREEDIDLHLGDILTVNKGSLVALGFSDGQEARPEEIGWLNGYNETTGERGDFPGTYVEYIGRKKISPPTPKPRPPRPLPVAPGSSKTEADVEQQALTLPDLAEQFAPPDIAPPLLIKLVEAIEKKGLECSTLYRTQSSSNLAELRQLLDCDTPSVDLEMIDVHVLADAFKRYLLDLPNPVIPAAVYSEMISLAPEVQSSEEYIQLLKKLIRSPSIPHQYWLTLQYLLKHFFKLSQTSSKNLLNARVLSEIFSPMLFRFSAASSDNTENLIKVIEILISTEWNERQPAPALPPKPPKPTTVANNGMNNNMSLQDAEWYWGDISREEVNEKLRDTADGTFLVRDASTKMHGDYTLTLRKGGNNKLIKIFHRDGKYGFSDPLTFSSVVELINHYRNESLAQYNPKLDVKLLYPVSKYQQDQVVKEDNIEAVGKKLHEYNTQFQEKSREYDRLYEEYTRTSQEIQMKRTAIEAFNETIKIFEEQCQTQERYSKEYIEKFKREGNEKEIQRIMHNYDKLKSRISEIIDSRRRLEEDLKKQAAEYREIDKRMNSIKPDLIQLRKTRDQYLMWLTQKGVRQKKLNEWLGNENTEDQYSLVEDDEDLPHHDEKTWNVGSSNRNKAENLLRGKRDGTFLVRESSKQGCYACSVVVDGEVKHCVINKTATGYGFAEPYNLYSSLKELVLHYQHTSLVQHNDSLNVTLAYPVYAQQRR
As to the kind of experiment: In vitro enzymatic activity test (ADP-Glo lipid kinase), PI3Kδ. In kind it is biochemical. Particulars: Table 17, in vitro screening. The procedure:
(§1) The lipid kinase reaction was carried out in a suitable substrate and under ATP conditions, then the activity of the kinase was detected by ADP-Glo™ kit in two steps. Step 1: the kinase reaction was terminated, in which the residual ATP was completely removed and only ADP was retained; step 2: kinase detection reagent was added to convert ADP to ATP, accompanied by fluorescein/luciferase reaction. Finally, the fluorescence value output was converted into kinase activity.
(§2) Experimental Materials and Equipment:
(§3) 2) Kit: ADP-Glo™ lipid kinase and PIP2:3PS kit (Promega #V1792)
(§4) The reagent kit contains: 1 mM PIP2:3PS, 10× lipid dilution buffer, 1 M magnesium chloride, 10 mM ATP, 10 mM ADP, ADP-Glo reagent, detection buffer and detection substrate.
(§5) 3) Reaction plate: OptiPlate-384, white and transparent (PerkinElmer #6007299)
(§6) 1) 10× reaction buffer: 500 mM HEPES, pH 7.5, 500 mM NaCl, […]; BSA: 10% stock solution, self-made
(§7) 2) Final test system conditions: 1× reaction system: 50 mM of HEPES, 50 mM of NaCl, 3 mM of MgCl2, 0.01% BSA (freshly prepared on the day of experiment), 1% DMSO (v/v)+/−compound
(§8) 3) Reaction system: 3 μL of mixture of enzyme and substrate (1:1)+2 μL of ATP/MgCl2 mixture+5 μL of ADP-Glo reagent+10 μL of detection reagent.
(§9) The specific experimental operations were as follows: […]
(§10) (16) Fluorescence values were measured on the Envision instrument.
(In general: ADP-Glo first removes unused ATP, then detects ADP through luciferase.)

In a further data set the target is T2, PI3Kγ (Homo sapiens, UniProt P48736).
T2 construct: purchased Millipore 14-558-K
T2 sequence (P48736 whole entry): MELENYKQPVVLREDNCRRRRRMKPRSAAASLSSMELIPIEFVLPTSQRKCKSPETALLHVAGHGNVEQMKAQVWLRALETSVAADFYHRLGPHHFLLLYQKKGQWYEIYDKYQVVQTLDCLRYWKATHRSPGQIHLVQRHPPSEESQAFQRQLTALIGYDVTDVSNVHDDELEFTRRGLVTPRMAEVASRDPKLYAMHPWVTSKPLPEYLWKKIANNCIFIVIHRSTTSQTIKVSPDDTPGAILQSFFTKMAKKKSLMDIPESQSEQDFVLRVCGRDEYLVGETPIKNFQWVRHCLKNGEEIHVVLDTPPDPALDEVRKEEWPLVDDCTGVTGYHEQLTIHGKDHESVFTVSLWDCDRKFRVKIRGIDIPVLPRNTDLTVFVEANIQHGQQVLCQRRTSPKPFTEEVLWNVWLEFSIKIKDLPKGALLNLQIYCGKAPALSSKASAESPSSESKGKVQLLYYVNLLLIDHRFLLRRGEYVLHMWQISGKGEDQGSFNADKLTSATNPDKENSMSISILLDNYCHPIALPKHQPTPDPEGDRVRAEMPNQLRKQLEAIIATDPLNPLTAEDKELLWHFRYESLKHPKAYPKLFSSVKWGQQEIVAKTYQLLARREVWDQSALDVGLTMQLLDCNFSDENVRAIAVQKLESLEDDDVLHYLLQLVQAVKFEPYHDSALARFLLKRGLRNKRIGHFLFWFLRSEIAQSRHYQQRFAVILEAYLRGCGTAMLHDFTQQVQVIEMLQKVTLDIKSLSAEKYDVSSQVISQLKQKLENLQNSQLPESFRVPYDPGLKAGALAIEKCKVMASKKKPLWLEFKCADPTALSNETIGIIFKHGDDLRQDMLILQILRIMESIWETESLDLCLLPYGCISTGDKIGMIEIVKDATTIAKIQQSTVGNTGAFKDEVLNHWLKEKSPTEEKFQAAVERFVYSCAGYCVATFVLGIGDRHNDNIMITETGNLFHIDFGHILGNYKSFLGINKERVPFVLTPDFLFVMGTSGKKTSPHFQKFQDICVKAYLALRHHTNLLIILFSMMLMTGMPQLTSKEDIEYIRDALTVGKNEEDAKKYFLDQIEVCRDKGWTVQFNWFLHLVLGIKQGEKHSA
As to the kind of experiment: In vitro enzymatic activity test (ADP-Glo lipid kinase), PI3Kγ. It is filed as biochemical. The following applies: Table 17, in vitro screening. The procedure:
as §1, §2, §3, §4, §5, §6, §7, §8, §9, §10

In the next data set the target is T3, PI3Kα (Homo sapiens, UniProt P42336).
T3 construct: purchased Millipore 14-602-K
T3 sequence (P42336 whole entry): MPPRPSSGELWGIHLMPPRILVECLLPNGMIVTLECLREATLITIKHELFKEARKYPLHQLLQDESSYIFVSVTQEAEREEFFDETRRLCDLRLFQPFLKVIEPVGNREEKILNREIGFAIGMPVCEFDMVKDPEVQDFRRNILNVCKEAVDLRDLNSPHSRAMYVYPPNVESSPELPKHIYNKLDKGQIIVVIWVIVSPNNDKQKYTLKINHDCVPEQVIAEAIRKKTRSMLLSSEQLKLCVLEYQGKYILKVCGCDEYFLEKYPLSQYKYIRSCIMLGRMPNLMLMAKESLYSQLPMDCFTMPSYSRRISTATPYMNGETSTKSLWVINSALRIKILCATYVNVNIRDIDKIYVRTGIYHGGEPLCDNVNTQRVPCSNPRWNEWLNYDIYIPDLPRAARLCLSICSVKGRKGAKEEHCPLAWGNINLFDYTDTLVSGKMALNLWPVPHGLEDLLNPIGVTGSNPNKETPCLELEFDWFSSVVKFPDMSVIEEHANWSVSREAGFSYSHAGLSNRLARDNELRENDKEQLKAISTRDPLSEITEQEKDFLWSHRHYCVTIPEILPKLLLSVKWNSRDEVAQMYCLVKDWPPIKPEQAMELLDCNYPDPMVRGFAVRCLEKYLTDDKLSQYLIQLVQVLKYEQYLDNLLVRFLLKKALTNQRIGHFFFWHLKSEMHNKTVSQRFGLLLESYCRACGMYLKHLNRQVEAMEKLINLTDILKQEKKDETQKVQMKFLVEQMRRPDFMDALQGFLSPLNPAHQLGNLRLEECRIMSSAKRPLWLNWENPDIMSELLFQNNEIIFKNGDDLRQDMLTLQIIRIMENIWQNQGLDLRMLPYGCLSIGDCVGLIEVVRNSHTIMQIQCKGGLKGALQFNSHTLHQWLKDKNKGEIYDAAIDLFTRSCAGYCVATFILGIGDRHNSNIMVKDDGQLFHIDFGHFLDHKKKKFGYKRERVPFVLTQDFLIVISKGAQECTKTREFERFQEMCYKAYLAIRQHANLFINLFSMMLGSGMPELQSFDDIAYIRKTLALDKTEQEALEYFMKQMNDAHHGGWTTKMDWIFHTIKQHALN
T3 sequence (P27986 whole entry partner): as the sequence (P27986 whole entry partner) above
Put plainly: In vitro enzymatic activity test (ADP-Glo lipid kinase), PI3Kα wild type. It is filed as biochemical. Particulars: Table 17, in vitro screening; read-out: PI3Kα IC50. The procedure: as §1, §2, §3, §4, §5, §6, §7, §8, §9, §10

The target of a further data set is T4, PI3Kβ (Homo sapiens, UniProt P42338).
T4 construct: purchased Promega V1751
T4 sequence (P42338 whole entry): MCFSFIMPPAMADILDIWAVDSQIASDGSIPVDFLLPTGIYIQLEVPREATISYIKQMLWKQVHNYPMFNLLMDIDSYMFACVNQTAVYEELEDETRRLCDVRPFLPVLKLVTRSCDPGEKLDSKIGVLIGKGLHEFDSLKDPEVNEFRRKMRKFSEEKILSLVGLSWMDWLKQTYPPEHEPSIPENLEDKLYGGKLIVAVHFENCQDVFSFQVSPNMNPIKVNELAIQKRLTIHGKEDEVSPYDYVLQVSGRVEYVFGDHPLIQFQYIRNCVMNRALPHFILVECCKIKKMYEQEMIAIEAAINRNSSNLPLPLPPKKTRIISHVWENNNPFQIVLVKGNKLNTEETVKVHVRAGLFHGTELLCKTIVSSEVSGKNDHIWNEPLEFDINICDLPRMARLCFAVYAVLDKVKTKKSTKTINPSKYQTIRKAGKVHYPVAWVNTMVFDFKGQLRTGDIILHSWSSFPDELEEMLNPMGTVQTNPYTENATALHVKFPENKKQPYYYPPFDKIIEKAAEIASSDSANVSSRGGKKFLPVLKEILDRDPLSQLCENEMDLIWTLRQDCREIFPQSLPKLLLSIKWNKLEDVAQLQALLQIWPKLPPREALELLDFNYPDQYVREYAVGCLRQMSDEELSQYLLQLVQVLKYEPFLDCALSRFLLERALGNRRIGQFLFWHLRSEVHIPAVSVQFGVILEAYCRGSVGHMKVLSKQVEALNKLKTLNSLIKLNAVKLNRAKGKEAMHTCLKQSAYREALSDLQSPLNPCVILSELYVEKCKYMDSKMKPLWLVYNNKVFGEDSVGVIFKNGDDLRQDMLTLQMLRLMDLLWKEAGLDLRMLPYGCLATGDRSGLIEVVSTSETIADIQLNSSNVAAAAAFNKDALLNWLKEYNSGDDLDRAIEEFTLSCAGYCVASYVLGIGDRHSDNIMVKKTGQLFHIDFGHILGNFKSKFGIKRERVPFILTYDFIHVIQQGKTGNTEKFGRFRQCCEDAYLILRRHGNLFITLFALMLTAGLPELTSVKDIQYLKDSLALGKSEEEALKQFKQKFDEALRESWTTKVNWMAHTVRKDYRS
T4 sequence (P27986 whole entry partner): as the sequence (P27986 whole entry partner) above
Put plainly: In vitro enzymatic activity test (ADP-Glo lipid kinase), PI3Kβ. In kind it is biochemical. Particulars: Table 17, in vitro screening. The method, then:
as §1, §2, §3, §4, §5, §6, §7, §8, §9, §10

For a further data set, the system named is MCF7 cell line. Put plainly: In vitro cell activity test: ELISA of Akt phosphorylation in MCF7 cells. The following applies: Homo sapiens; inhibition of Akt phosphorylation, insulin-stimulated MCF7 cells. In kind it is cell-based. An excerpt:
ELISA method was used to measure the inhibition level of the compounds to be tested on the phosphorylation of Akt, which is the downstream protein of PI3K in signal pathway in MCF7 cell line to reflect the cell activity of the compounds.
Cell culture medium: complete cell culture medium (RPMI 1640+10% serum+1% L-glutamine+1% double antibody)
Serum-free medium (without serum, RPMI 1640+1% L-glutamine+1% double antibody)
Specific operation steps were as follows:
(1) MCF7 cells (ATCC® HTB-22™) were inoculated into a 96-well plate with 100 μL (2.5 10^4 cells per well) of complete cell culture medium, and incubated at 37° C. and 5% CO2 for 24 hours.
(2) The complete cell culture medium was replaced with 100 μL serum-free medium, and incubated overnight in starvation
(3) The compound (the initial concentration of the compound was 1 mM, which was subjected to a three-fold dilution in 10 concentrations. Then, each concentration of the compound was diluted 100-fold with serum-free medium), and 25 μL of the diluted compound was added to the well plate containing cells.
(4) The cells were incubated at 37° C. and 5% CO2 for 2 h
(5) 10 μg/mL insulin (Sigma #I9278-5 mL) was used to stimulate the cells in the well plate, incubated for 30 min, and then centrifuged at 1000 rpm for 5 min at room temperature.
(6) 250 μL 1× balanced salt solution (Invitrogen, #14065-056, 4° C., containing 1 mM/L Na3VO4) was added to each well to wash the cells once
(7) 100 μL of lysis buffer (tris(hydroxymethyl)aminomethane hydrochloride, Invitrogen, #15567-1000 ml) was added to each well and shaken at 4° C. for 60 min, and then centrifuged at 4000 rpm for 10 min at 4° C.
(8) The subsequent steps were performed according to the ELISA kit (TGR BioSciences #EKT002) instructions.

The mark [4] stands for this setting: 40 mg/kg, oral once a day for 20 days.

pIC50: −log10 of the molar value.

For the molecule `CNC(=O)[C@H](C)Cn1cnc2ccc(-c3cnc(OC)c(NS(=O)(=O)c4ccc(F)cc4F)c3)cc2c1=O` [listing 1 of 2 here], the “Oral bioavailability (%)” value in data set [1] is reported as 71.2%.
Regarding `CNC(=O)[C@H](C)Cn1cnc2ccc(-c3cnc(OC)c(NS(=O)(=O)c4ccc(F)cc4F)c3)cc2c1=O` [listing 2 of 2 here], in data set [2], the Classification for hygroscopicity result was “hygroscopic” and the “ΔW, hygroscopical weight gain” value was found to be 2.332%.
Regarding `Cc1nc(NC(=O)N2CCC[C@H]2C(N)=O)sc1-c1ccnc(C(C)(C)C(F)(F)F)c1` [BYL-719, reference compound], the “Anti-tumor effect (in words)” value in data set [3] (40 mg/kg group) was “significant anti-tumor effects”. In data set [3] (setting [4]), this molecule had a T/C % of 29.39% and a TGI % of 95.31%.
For the molecule `CNC(=O)[C@H](C)Cn1cnc2ccc(-c3cnc(OC)c(NS(=O)(=O)c4ccc(F)cc4F)c3)cc2c1=O` [Compound represented by formula (I)], the negative-log IC50 (pIC50) (commonly the negative decadic logarithm of the IC50, by convention in mol/L) at PI3Kδ was 7.60; against PI3Kγ it was 7.70; at PI3Kα, 8.76; against PI3Kβ, 6.72; with MCF7 cell line, 7.45.
For `COc1ncc(-c2ccc3ncn(CCN(C)C)c(=O)c3c2)cc1NS(=O)(=O)c1ccc(F)cc1` [R011 (A2)], the negative-log IC50 (pIC50) in the data set with MCF7 cell line was 6.64.
On the same count and under the same terms, as for `CCN(CC)CCn1cnc2ccc(-c3cnc(OC)c(NS(=O)(=O)c4ccc(F)cc4F)c3)cc2c1=O` [R012 (A10)], the figure is under 6.00.
